Experimental data taken from patent publication US6689609B1, “Enhancing germination of plant somatic embryos by priming” (Cellfor Inc., priority 1999, dated 2004).
Where two headings read alike, the source gives them in different places.

Tests used:
[1] = test system: interior spruce somatic embryos; experiment: Elevated sucrose levels (4-10% w/v) and extended nutripriming (3-5 days): ex vitro germination and growth of interior spruce genotypes 5-1378 and 107-2049; type: in vivo, Picea glauca (Moench) Voss x P. engelmannii Parry ex Engelm.
Procedure: Mature somatic embryos of interior spruce (Picea glauca (Moench) Voss x P. engelmannii Parry ex Engelm.) genotypes 5-1378 and 107-2049 t were desiccated with the HRHT treatment and stored at 4° C. Embryos were subsequently removed from storage and nutriprimed for one of 3, 4, or 5 days periods as previously described in ½ m24GMD liquid medium containing one of the following sucrose concentrations; 4, 6, 8, and 10% (all w/v). After the nutripriming treatments were completed, the embryos were sown ex vitro onto a peat-based polymer-bound horticultural growing substrate in 504-cell (4 ml/cell) styrofoam miniplug trays (Grow-Tech Inc., San Bautista, Calif.). The sown trays were then placed into a conventional non-sterile horticulture germination chamber in an environment-controlled growth room. The environmental conditions were 22-24° C. air temperature, 80-100% RH, 0.10-0.15% CO2, and a 16-hr photoperiod with 40-120 μmol m^−2s^−1 photosynthetic photon flux. Immediately after the trays containing ex vitro sown nutriprimed embryos were placed into the non-sterile germination chamber, they were misted with a ½ m24GMD nutrient solution amended with 3% w/v sucrose solution until the surfaces of the non-sterile growing substrates were well-wetted. Subsequently, the trays were misted with this solution daily for a 3-week germination period. Aseptic techniques or conditions were not used for application of the nutrient solutions, nor for the germination environment during the 2-week culture period. Furthermore, prophylactic applications of 0.1 g/l benlate, 0.05 g/l ampicillin plus 0.05 g/l penicillin G (or 0.1 ampicillin), and 5 ml/l Gnatrol® were applied at 5-day intervals to control fungi, bacteria, and fungus fly larvae.

[2] = test system: interior spruce somatic embryos; type: in vivo, Picea glauca (Moench) Voss x P. engelmannii Parry ex Engelm.
Text: The second study assessed the effects adding various osmotica to nutripriming solutions on subsequent germination and development performance. Mature somatic embryos of interior spruce (Picea glauca (Moench) Voss x P. engelmannii Parry ex Engelm.) genotype 23-2672 were desiccated with the HRHT treatment, and then divided into 10 groups of 160 somatic embryos per group. One group was not primed and served as the HRHT control treatment for this study. […] The nutripriming solutions and embryos were placed into 250-ml Kimax® baffled flasks. The nutripriming duration was 72 hrs at temperatures ranging between 20-23° C., and a 24-hr photoperiod of 30 μmol m^−2s^−1 photosynthetic photon flux.
At the completion of the nutripriming step, the nutriprimed embryos from each treatment were divided into 8 groups of 20 embryos and sown by hand onto vermiculite media in Sigma polycarbonate boxes. The liquid media in these germination boxes were either 3% w/v sucrose m24GMD or m24GMD without sucrose. The experiment design was a random complete block design for each media type. Each nutripriming treatment had 4 replicates of 20 embryos in each germination media type. The germination boxes were placed in a germination room and grown for two weeks under 50-70 μmol m^−2s^−1 photosynthetic photon flux of 16-hour photoperiod at an air temperature of 23° C. The germinants were then harvested and assessed for germination rates, hyperhydricity rates, shoot and root length. Germination was defined as germinants having a root longer than 2 mm, and elongated hypercotyl. Hyperhydricity was defined by the thickening of hypercotyl and watery appearance of the germinants, whether germinated or not germinated.

[3] = genotype 5-1378, 3% sucrose in nutripriming solution, 3 days priming
[4] = genotype 5-1378, 4% sucrose in nutripriming solution, 3 days priming
[5] = genotype 5-1378, 4% sucrose in nutripriming solution, 4 days priming
[6] = genotype 5-1378, 4% sucrose in nutripriming solution, 5 days priming
[7] = genotype 5-1378, 6% sucrose in nutripriming solution, 3 days priming
[8] = genotype 5-1378, 6% sucrose in nutripriming solution, 4 days priming
[9] = genotype 5-1378, 6% sucrose in nutripriming solution, 5 days priming
[10] = genotype 5-1378, 8% sucrose in nutripriming solution, 3 days priming
[11] = genotype 5-1378, 8% sucrose in nutripriming solution, 4 days priming
[12] = genotype 5-1378, 8% sucrose in nutripriming solution, 5 days priming
[13] = genotype 5-1378, 10% sucrose in nutripriming solution, 3 days priming
[14] = genotype 5-1378, 10% sucrose in nutripriming solution, 4 days priming
[15] = genotype 5-1378, 10% sucrose in nutripriming solution, 5 days priming
[16] = genotype 107-2049, 3% sucrose in nutripriming solution, 3 days priming
[17] = genotype 107-2049, 4% sucrose in nutripriming solution, 3 days priming
[18] = genotype 107-2049, 4% sucrose in nutripriming solution, 4 days priming
[19] = genotype 107-2049, 4% sucrose in nutripriming solution, 5 days priming
[20] = genotype 107-2049, 6% sucrose in nutripriming solution, 3 days priming
[21] = genotype 107-2049, 6% sucrose in nutripriming solution, 4 days priming
[22] = genotype 107-2049, 6% sucrose in nutripriming solution, 5 days priming
[23] = genotype 107-2049, 8% sucrose in nutripriming solution, 3 days priming
[24] = genotype 107-2049, 8% sucrose in nutripriming solution, 4 days priming
[25] = genotype 107-2049, 8% sucrose in nutripriming solution, 5 days priming
[26] = genotype 107-2049, 10% sucrose in nutripriming solution, 3 days priming
[27] = genotype 107-2049, 10% sucrose in nutripriming solution, 4 days priming
[28] = genotype 107-2049, 10% sucrose in nutripriming solution, 5 days priming
[29] = germination media m24GMD (without sucrose), osmoticant levels as E220
[30] = germination media m24GMD plus 3% sucrose, osmoticant levels as E220

% with hyperhydricity ([2]; in vivo): 40.0 ± 23.2%
Structure (SMILES): OC[C@H]1O[C@@](CO)(O[C@H]2O[C@H](CO)[C@@H](O)[C@H](O)[C@H]2O)[C@@H](O)[C@@H]1O [sucrose]
Germination % [1, 3]: 83.3 ± 8.8%
Rooting % [1, 3]: 73.3 ± 8.8%
Germination % [1, 4]: 98.3 ± 1.7%
Rooting % [1, 4]: 86.7 ± 7.3%
Germination % [1, 5]: 96.7 ± 3.3%
Rooting % [1, 5]: 91.7 ± 4.4%
Germination % [1, 6]: 96.5 ± 1.8%
Rooting % [1, 6]: 91.5 ± 6.0%
Germination % [1, 7]: 91.7 ± 4.4%
Rooting % [1, 7]: 86.7 ± 3.3%
Germination % [1, 8]: 96.7 ± 3.3%
Rooting % [1, 8]: 90.0 ± 2.9%
Germination % [1, 9]: 98.3 ± 1.7%
Rooting % [1, 9]: 88.3 ± 4.4%
Germination % [1, 10]: 91.7 ± 4.4%
Rooting % [1, 10]: 66.7 ± 12.0%
Germination % [1, 11]: 100%
Rooting % [1, 11]: 91.7 ± 3.3%
Germination % [1, 12]: 95.0 ± 5.0%
Rooting % [1, 12]: 86.7 ± 8.3%
Germination % [1, 13]: 84.7 ± 2.9%
Rooting % [1, 13]: 52.5 ± 7.2%
Germination % [1, 14]: 100%
Rooting % [1, 14]: 88.3 ± 6.0%
Germination % [1, 15]: 98.3 ± 1.7%
Rooting % [1, 15]: 91.7 ± 4.4%
Germination % [1, 16]: 91.7 ± 4.4%
Rooting % [1, 16]: 68.3 ± 6.0%
Germination % [1, 17]: 90.0 ± 5.0%
Rooting % [1, 17]: 71.7 ± 8.8%
Germination % [1, 18]: 84.6 ± 6.2%
Rooting % [1, 18]: 62.3 ± 13.0%
Germination % [1, 19]: 93.3 ± 6.7%
Rooting % [1, 19]: 76.2 ± 4.5%
Germination % [1, 20]: 81.7 ± 3.3%
Rooting % [1, 20]: 66.7 ± 3.3%
Germination % [1, 21]: 85.8 ± 2.2%
Rooting % [1, 21]: 69.6 ± 6.1%
Germination % [1, 22]: 86.7 ± 3.3%
Rooting % [1, 22]: 70.0 ± 0.0%
Germination % [1, 23]: 76.7 ± 4.4%
Rooting % [1, 23]: 51.7 ± 4.4%
Germination % [1, 24]: 93.3 ± 4.4%
Rooting % [1, 24]: 88.3 ± 4.4%
Germination % [1, 25]: 93.3 ± 4.4%
Rooting % [1, 25]: 60.0 ± 0.0%
Germination % [1, 26]: 81.7 ± 6.7%
Rooting % [1, 26]: 36.7 ± 10.1%
Germination % [1, 27]: 90.0 ± 7.6%
Rooting % [1, 27]: 76.7 ± 8.3%
Germination % [1, 28]: 86.7 ± 1.7%
Rooting % [1, 28]: 51.7 ± 12.0%
Germination % [2, 29]: 91.7 ± 8.3%
Root length [2, 29]: 2.4 ± 0.1 mm
Shoot length [2, 29]: 14.7 ± 0.3 mm
Germination % ([2]; germination media m24GMD plus 3% sucrose, osmoticant in m24GMD priming solution (w/v): 1% betaine, 1.65% fructose, glucose, mannitol, sorbitol, 3% lactose, maltose, sucrose, 10% PEG 4000, 72 hrs): 100%
Root length [2, 30]: 11.6 ± 0.9 mm
Shoot length [2, 30]: 18.1 ± 0.4 mm
